Patent publication US20240148821A1, “PHARMACEUTICAL USE OF CYCLIC PEPTIDE COMPOUND” (CHUGAI SEIYAKU KABUSHIKI KAISHA, priority 2021, published 2024)
Numbered stars: 1 amine (or outer) side, 2 acyl side, 3 side chain; on linkers, the order of the positions; unused ones are H or OH. Bridge positions count the residues as written; N and C are the ends. Square brackets hold non-standard residues; d marks the D form. Peptide text beside a SMILES is read from it. * marks the point of attachment. hPhe(3-Cl-4-CF3) = N[C@@H](CCc1ccc(C(F)(F)F)c(Cl)c1)C(=O)O; hPhe(3-F,4-CF3) = N[C@@H](CCc1ccc(C(F)(F)F)c(F)c1)C(=O)O; NEtPhe(4-CF3) = CCN[C@@H](Cc1ccc(C(F)(F)F)cc1)C(=O)O; NMePhe(4-CF3) = CN[C@@H](Cc1ccc(C(F)(F)F)cc1)C(=O)O; NEtAsp = CCN([C@@H](CC(=O)[*:3])C(=O)[*:2])[*:1]; NMePhe(4-Me) = CN[C@@H](Cc1ccc(C)cc1)C(=O)O; NMedβ3hAla = C[C@H](CC(=O)[*:2])N(C)[*:1]; NMeGly(cPent) = CN[C@H](C(=O)O)C1CCCC1; Phe(3-I) = N[C@@H](Cc1cccc(I)c1)C(=O)O; Pro(4,4-F2) = O=C(O)[C@@H]1CC(F)(F)CN1; NMeAla(cPr) = CN[C@@H](CC1CC1)C(=O)O; NMeGly(cBu) = CN[C@H](C(=O)O)C1CCC1; NMeCha = CN[C@@H](CC1CCCCC1)C(=O)O; X76 = C=CC[C@H](CC(=O)[*:2])N[*:1]; NEtLeu = CCN[C@@H](CC(C)C)C(=O)O; NMeAhp(2) = CCCCC[C@H](NC)C(=O)O; NMeChg = CN[C@H](C(=O)O)C1CCCCC1; NMeI = CC[C@H](C)[C@H](NC)C(=O)O; X138 = NCCOCCN(CC(=O)[*:2])[*:1]; NMeD = CN[C@@H](CC(=O)O)C(=O)O; NMeL = CN[C@@H](CC(C)C)C(=O)O; NMeV = CN[C@H](C(=O)O)C(C)C; d(β3hA) = C[C@@H](N)CC(=O)O; NMeS = CN[C@@H](CO)C(=O)O; Morpholide = C1CN(*)CCO1; NMeA = CN[C@@H](C)C(=O)O; NMeAib = CNC(C)(C)C(=O)O; Piperidide = C1CCN(*)CC1; Pra = C#CC[C@H](N)C(=O)O; Ac5c = NC1(C(=O)O)CCCC1; Aze = O=C(O)[C@@H]1CCN1; Ac4c = NC1(C(=O)O)CCC1; CH2CMe2OH = CC(C)(O)C*; Isopentyl = CC(C)CC*; NEtG = CCNCC(=O)O; Sar = CNCC(=O)O

target: protein-protein interaction between Kras and SOS1 (biotin-tagged human Kras loaded with GDP, His-tagged human SOS1) (Homo sapiens (Human), UniProt P01116, G12D); assay: Protein-protein interaction inhibition between Kras and SOS1 (KrasG12D-SOS PPI) using AlphaScreen; format: biochemical; conditions: AlphaScreen; biotin-tagged human Kras loaded with GDP, His-tagged human SOS1; read-out: KRAS G12D-SOS PPI IC50;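 note: kras produced in E. coli, Ni-coupled donor beads and streptavidin acceptor beads, excitation 680 nm with emission detected at 520–620 nm via singlet oxygen transfer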

Row | SMILES | IC50 [nM]
1 | CC[C@H](C)[C@@H]1NC(=O)[C@H](CC(C)C)N(C)C(=O)C[C@@H](C(=O)N2CCCCC2)N(C)C(=O)[C@H](C(C)C)N(C)C(=O)C2(CCCC2)NC(=O)[C@@H]2CCCN2C(=O)[C@H](CCc2ccc(C(F)(F)F)c(Cl)c2)NC(=O)CN(C)C(=O)[C@H](Cc2ccc(C)cc2)N(C)C(=O)[C@@H]2CCN2C(=O)[C@H](C)N(C)C1=O [Compound 1828] ([NMeL]I[NMeA][Aze][NMePhe(4-Me)][Sar][hPhe(3-Cl-4-CF3)]P[Ac5c][NMeV][NMeD]-Piperidide; lactam N-11) | 2.7
2 | C#CC[C@@H]1NC(=O)[C@H](Cc2cccc(I)c2)NC(=O)CN(C)C(=O)[C@H](Cc2ccc(C(F)(F)F)cc2)N(C)C(=O)CN(C)C(=O)CN(C)C(=O)[C@H]([C@@H](C)CC)NC(=O)[C@H](CC(C)C)N(C)C(=O)C[C@@H](C)N(C)C(=O)[C@H](CC(C)C)NC(=O)C(C)(C)N(C)C1=O [Compound 1406] (cyclo(I[Sar][Sar][NMePhe(4-CF3)][Sar][Phe(3-I)][Pra][NMeAib]L[NMedβ3hAla][NMeL])) | 160
3 | CC[C@H](C)[C@@H]1NC(=O)[C@H](CC(C)C)N(C)C(=O)C[C@@H](C)NC(=O)[C@H](CC(C)C)N(C)C(=O)C2(CCCC2)NC(=O)[C@H](COCC(C)(C)O)N(C)C(=O)[C@H](CCc2ccc(C(F)(F)F)c(Cl)c2)NC(=O)CN(C)C(=O)[C@H](COCCC(C)C)N(C)C(=O)CN(C)C(=O)CN(CC)C1=O [Compound 1464] (cyclo([Ac5c][NMeL][d(β3hA)][NMeL]I[NEtG][Sar][NMeS](Isopentyl)[Sar][hPhe(3-Cl-4-CF3)][NMeS](CH2CMe2OH))) | 190
4 | CC[C@H](C)[C@@H]1NC(=O)[C@H](CC2CC2)N(C)C(=O)C[C@@H](C)NC(=O)[C@H](C(C)C)N(C)C(=O)C2(CCCC2)NC(=O)[C@@H]2CCCN2C(=O)[C@H](CCc2ccc(C(F)(F)F)c(Cl)c2)NC(=O)CN(C)C(=O)[C@H](CC2CCCCC2)N(C)C(=O)[C@@H]2CCN2C(=O)[C@H](C)N(C)C1=O [Compound 771] (cyclo([Ac5c][NMeV][d(β3hA)][NMeAla(cPr)]I[NMeA][Aze][NMeCha][Sar][hPhe(3-Cl-4-CF3)]P)) | 25
5 | CC[C@H](C)[C@@H]1NC(=O)[C@H](CC(C)C)N(C)C(=O)C[C@@H](C(=O)N2CCCCC2)N(C)C(=O)[C@H](C(C)C)N(C)C(=O)C2(CCCC2)NC(=O)[C@@H]2CCCN2C(=O)[C@H](CCc2ccc(C(F)(F)F)c(Cl)c2)NC(=O)CN(C)C(=O)[C@H](COCCC(C)C)N(C)C(=O)[C@@H]2CCN2C(=O)[C@H](C)N(C)C1=O [Compound 470] ([NMeL]I[NMeA][Aze][NMeS](Isopentyl)[Sar][hPhe(3-Cl-4-CF3)]P[Ac5c][NMeV][NMeD]-Piperidide; lactam N-11) | 2.2
6 | CC[C@H](C)[C@@H]1NC(=O)[C@H](CC(C)C)N(C)C(=O)C[C@@H](C(=O)N2CCCCC2)N(C)C(=O)[C@H]([C@@H](C)CC)N(C)C(=O)C2(CCCC2)NC(=O)[C@@H]2CCCN2C(=O)[C@H](CCc2ccc(C(F)(F)F)c(F)c2)NC(=O)CN(C)C(=O)[C@H](C2CCCC2)N(C)C(=O)[C@@H]2CCN2C(=O)[C@H](C)N(C)C1=O [Compound 674] ([NMeL]I[NMeA][Aze][NMeGly(cPent)][Sar][hPhe(3-F,4-CF3)]P[Ac5c][NMeI][NMeD]-Piperidide; lactam N-11) | 5.6
7 | CC[C@H](C)[C@@H]1NC(=O)[C@H](CC(C)C)N(C)C(=O)C[C@@H](C(=O)N2CCCCC2)N(C)C(=O)[C@H](C2CCC2)N(C)C(=O)C2(CCCC2)NC(=O)[C@@H]2CCCN2C(=O)[C@H](CCc2ccc(C(F)(F)F)c(Cl)c2)NC(=O)CN(C)C(=O)[C@H](CC2CCCCC2)N(C)C(=O)[C@@H]2CCN2C(=O)[C@H](C)N(C)C1=O [Compound 672] ([NMeL]I[NMeA][Aze][NMeCha][Sar][hPhe(3-Cl-4-CF3)]P[Ac5c][NMeGly(cBu)][NMeD]-Piperidide; lactam N-11) | 2.5
8 | CC[C@H](C)[C@@H]1NC(=O)[C@H](CC(C)C)N(C)C(=O)C[C@@H](C(=O)N2CCCCC2)N(C)C(=O)[C@H](C2CCCC2)N(C)C(=O)C2(CCCC2)NC(=O)[C@@H]2CCCN2C(=O)[C@H](CCc2ccc(C(F)(F)F)c(Cl)c2)NC(=O)CN(C)C(=O)[C@H](C2CCCC2)N(C)C(=O)[C@@H]2CCN2C(=O)[C@H](C)N(C)C1=O [Compound 182] ([NMeL]I[NMeA][Aze][NMeGly(cPent)][Sar][hPhe(3-Cl-4-CF3)]P[Ac5c][NMeGly(cPent)][NMeD]-Piperidide; lactam N-11) | 0.98
9 | CCCCC[C@H]1C(=O)N[C@@H]([C@@H](C)CC)C(=O)N[C@@H](C)C(=O)N2CC[C@H]2C(=O)N(C)[C@@H](CC2CCCCC2)C(=O)N(C)CC(=O)N[C@@H](CCc2ccc(C(F)(F)F)c(Cl)c2)C(=O)N2CCC[C@H]2C(=O)NC2(CCCC2)C(=O)N(C)[C@@H](C2CCCC2)C(=O)N(C)[C@H](C(=O)N2CCOCC2)CC(=O)N1C [Compound 263] ([NMeAhp(2)]IA[Aze][NMeCha][Sar][hPhe(3-Cl-4-CF3)]P[Ac5c][NMeGly(cPent)][NMeD]-Morpholide; lactam N-11) | 2.9
10 | CC[C@H](C)[C@@H]1NC(=O)[C@H](CC(C)C)N(C)C(=O)C[C@@H](C(=O)N2CCCCC2)N(C)C(=O)[C@H](C(C)C)N(C)C(=O)C2(CCCC2)NC(=O)[C@@H]2CCCN2C(=O)[C@H](CCc2ccc(C(F)(F)F)c(Cl)c2)NC(=O)CN(C)C(=O)[C@H](C2CCC2)N(C)C(=O)[C@@H]2CCN2C(=O)[C@H](C)N(C)C1=O [Compound 446] ([NMeL]I[NMeA][Aze][NMeGly(cBu)][Sar][hPhe(3-Cl-4-CF3)]P[Ac5c][NMeV][NMeD]-Piperidide; lactam N-11) | 1.8
11 | CC[C@H](C)[C@@H]1NC(=O)[C@H](CC(C)C)N(C)C(=O)C[C@@H](C(=O)N2CCCCC2)N(C)C(=O)[C@H](C2CCCCC2)N(C)C(=O)C2(CCCC2)NC(=O)CN(CCOCCN)C(=O)[C@H](CCc2ccc(C(F)(F)F)c(Cl)c2)NC(=O)CN(C)C(=O)[C@H](CC2CCCCC2)N(C)C(=O)CN(C)C(=O)CN(C)C1=O [Compound 2185, (11S,17S,26S,29S,33S,36S)-9-[2-(2-aminoethoxy)ethyl]-11-[2-[3-chloro-4-(trifluoromethyl)phenyl]ethyl]-36-cyclohexyl-17-(cyclohexylmethyl)-29-isobutyl-15,18,21,24,30,34,37-heptamethyl-26-[(1S)-1-methylpropyl]-33-(piperidine-1-carbonyl)-6,9,12,15,18,21,24,27,30,34,37-undecazaspiro[4.33]octatriacontane-7,10,13,16,19,22,25,28,31,35,38-undecone] ([NMeL]I[Sar][Sar][NMeCha][Sar][hPhe(3-Cl-4-CF3)][X138][Ac5c][NMeChg][NMeD]-Piperidide; lactam N-11) | 2.4
12 | CC[C@H](C)[C@@H]1NC(=O)[C@H](CC(C)C)N(C)C(=O)C[C@@H](C(=O)N2CCCCC2)N(CC)C(=O)[C@H](C2CCCC2)N(C)C(=O)C2(CCCC2)NC(=O)[C@@H]2CCCN2C(=O)[C@H](CCc2ccc(C(F)(F)F)c(Cl)c2)NC(=O)CN(C)C(=O)[C@H](C2CCC2)N(C)C(=O)[C@@H]2CCN2C(=O)[C@H](C)N(C)C1=O [Compound 1047] ([NMeL]I[NMeA][Aze][NMeGly(cBu)][Sar][hPhe(3-Cl-4-CF3)]P[Ac5c][NMeGly(cPent)][NEtAsp]-Piperidide; lactam N-11) | 6.3
13 | CC[C@H](C)[C@@H]1NC(=O)[C@H](CC(C)C)N(C)C(=O)C[C@@H](C(=O)N(C)C)NC(=O)[C@H]([C@@H](C)CC)N(C)C(=O)C2(CCCC2)NC(=O)[C@@H]2CCCN2C(=O)[C@H](CCc2ccc(C(F)(F)F)c(Cl)c2)NC(=O)CN(C)C(=O)[C@H](CC2CCCCC2)N(C)C(=O)[C@@H]2CCN2C(=O)[C@H](C)N(C)C1=O [Compound 568] ([NMeL]I[NMeA][Aze][NMeCha][Sar][hPhe(3-Cl-4-CF3)]P[Ac5c][NMeI]D-NMe2; lactam N-11) | 8
14 | C=CC[C@@H]1CC(=O)N(C)[C@@H](CC(C)C)C(=O)N[C@@H]([C@@H](C)CC)C(=O)N(C)[C@@H](C)C(=O)N2CC[C@H]2C(=O)N(C)[C@@H](Cc2ccc(C)cc2)C(=O)N(C)CC(=O)N[C@@H](CCc2ccc(C(F)(F)F)c(Cl)c2)C(=O)N2CCC[C@H]2C(=O)NC2(CCCC2)C(=O)N(C)[C@@H]([C@@H](C)CC)C(=O)N1 [Compound 1883] (cyclo([Ac5c][NMeI][X76][NMeL]I[NMeA][Aze][NMePhe(4-Me)][Sar][hPhe(3-Cl-4-CF3)]P)) | 65
15 | CC[C@H](C)[C@@H]1NC(=O)[C@H](CC(C)C)N(C)C(=O)C[C@@H](C)N(C)C(=O)[C@H](C2CCCCC2)N(C)C(=O)C2(CCC2)NC(=O)[C@@H]2CC(F)(F)CN2C(=O)[C@H](CCc2ccc(C(F)(F)F)c(Cl)c2)NC(=O)CN(C)C(=O)[C@H](Cc2ccc(C(F)(F)F)cc2)N(CC)C(=O)[C@@H]2CCN2C(=O)[C@H](C)NC1=O [Compound 138] (cyclo(A[Aze][NEtPhe(4-CF3)][Sar][hPhe(3-Cl-4-CF3)][Pro(4,4-F2)][Ac4c][NMeChg][NMedβ3hAla][NMeL]I)) | 44
16 | CC[C@H](C)[C@@H]1NC(=O)[C@H](CC(C)C)N(CC)C(=O)C[C@@H](C(=O)N2CCOCC2)N(C)C(=O)[C@H]([C@@H](C)CC)N(C)C(=O)C2(CCCC2)NC(=O)[C@@H]2CCCN2C(=O)[C@H](CCc2ccc(C(F)(F)F)c(Cl)c2)NC(=O)CN(C)C(=O)[C@H](Cc2ccc(C(F)(F)F)cc2)N(C)C(=O)[C@@H]2CCN2C(=O)[C@H](C)NC1=O [Compound 1233] ([NEtLeu]IA[Aze][NMePhe(4-CF3)][Sar][hPhe(3-Cl-4-CF3)]P[Ac5c][NMeI][NMeD]-Morpholide; lactam N-11) | 2.5
17 | CC[C@H](C)[C@@H]1NC(=O)[C@H](CC(C)C)N(C)C(=O)C[C@@H](C(=O)N2CCCCC2)N(C)C(=O)[C@H](C(C)C)N(C)C(=O)C2(CCCC2)NC(=O)[C@@H]2CCCN2C(=O)[C@H](CCc2ccc(C(F)(F)F)c(Cl)c2)NC(=O)CN(C)C(=O)[C@H](CC2CCCCC2)N(C)C(=O)[C@@H]2CCN2C(=O)[C@H](C)NC1=O [Compound 1334] ([NMeL]IA[Aze][NMeCha][Sar][hPhe(3-Cl-4-CF3)]P[Ac5c][NMeV][NMeD]-Piperidide; lactam N-11) | 3
